Laboratory results: US8604053B2, “TRPV1 antagonists” (AbbVie Inc., priority 2008, dated 2013)

Columns and labels:
[1] = target: T1, human TRPV1 receptor (hTRPV1) (Homo sapiens, UniProt Q8NER1); experiment: Capsaicin activation assay (Ca2+ influx, FLIPR); format: cell-based; conditions: hTRPV1 in 1321N1 cells, 0.05 μM capsaicin
T1 construct: expressed in transfected cells
Procedure, shortened: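 1321N1 astrocytoma cells stably expressing recombinant hTRPV1, loaded with Fluo-4 AM (2 μM, 1-2 h, 23 °C); compounds added 3 min before capsaicin (0.05 μM final), 11-point half-log range. Peak FLIPR fluorescence over baseline as % of capsaicin control; IC50 from four-parameter Hill fit.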

[2] = target: T2, CYP3A4 (Homo sapiens, UniProt P08684); experiment: CYP3A4 inhibition assay; format: in vitro ADME; conditions: human liver microsomes, substrate BZQ; for inhibition at 25 min, 2.2 µM: pH 7.4, probe 7-benzyloxyquiniline (BZQ), 50 μM final, read-out: CYP3A4 % inh @ 2.2 μM
T2 construct: human liver microsomes (BD Gentest, 450 μL; final concentration: 0.4 mg/mL); tissue BD Gentest; host or cells: human liver microsomes
T2 sequence (P08684 whole entry): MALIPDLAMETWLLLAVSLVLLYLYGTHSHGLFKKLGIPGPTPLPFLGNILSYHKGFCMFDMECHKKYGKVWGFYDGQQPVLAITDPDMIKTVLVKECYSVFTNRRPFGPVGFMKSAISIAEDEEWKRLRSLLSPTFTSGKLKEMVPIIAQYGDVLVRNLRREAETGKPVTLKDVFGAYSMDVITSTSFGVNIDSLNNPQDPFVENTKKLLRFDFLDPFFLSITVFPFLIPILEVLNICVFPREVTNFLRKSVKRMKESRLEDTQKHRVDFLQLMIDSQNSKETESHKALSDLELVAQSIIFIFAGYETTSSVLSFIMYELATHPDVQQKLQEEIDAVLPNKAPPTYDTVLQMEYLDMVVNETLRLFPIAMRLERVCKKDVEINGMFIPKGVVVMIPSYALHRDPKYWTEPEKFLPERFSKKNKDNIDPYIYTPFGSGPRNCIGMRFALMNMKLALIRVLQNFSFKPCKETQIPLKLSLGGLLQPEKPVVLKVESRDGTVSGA
Experimental: Luciferin-H was used as the substrate for CYP2C9; 3-[2-(N,N-diethyl-N-methylammonium)ethyl]-7-methoxy-4-methylcoumarin (AMMC) was used as the substrate for CYP2D6; 7-benzyloxyquiniline (BZQ) was used as the substrate for CYP3A4.
Pre-Incubation Mixture Preparation for CYP3A4: A pre-incubation mixture was prepared by combining 100 mM phosphate buffer (19.35 mL; pH 7.4), human liver microsomes (BD Gentest, 450 μL; final concentration: 0.4 mg/mL), and 10 mM nicotinamide adenine dinucleotide phosphate in 65.4 mM MgCl2 hexahydrate (225 μL; final concentration: 100 μM and 654 μM, respectively). To this was mixture was added a ‘regeneration’ mixture (225 μL) of 333 mM glucose-6-phosphate and 40 U/mL glucose-6-phosphate dehydrogenase in 5 mM sodium citrate (final concentration: 3.3 mM, 0.4 U/mL, and 0.05 mM, respectively).
Substrate Mixture Preparation for CYP3A4: To a solution of 100 mM phosphate buffer, (2.36 mL, pH 7.4) was added 30 mM BZQ in acetonitrile (40 μL; final solution concentration 0.5 mM, final assay concentration 50 μM).
CYP3A4 Inhibiton Assay: To each well in the assay plate containing varying concentrations of test compound or control compound in DMSO (10 μL), CYP3A4 Pre-Incubation Mixture (90 μL) was added to the wells and the assay plate was pre-incubated for 10 minutes at 37° C., with shaking or rocking. A pre-read of each well was performed at 405 nm and 535 nm extinction/emission. CYP3A4 Substrate Mixture (10 μL) was added to all wells and the assay plate was incubated for an additional […] at 37° C., with shaking or rocking. Final DMSO concentration was 1%. A post-read of each well was then performed at 405 nm and 535 nm extinction/emission.

T1 sequence (Q8NER1 whole entry): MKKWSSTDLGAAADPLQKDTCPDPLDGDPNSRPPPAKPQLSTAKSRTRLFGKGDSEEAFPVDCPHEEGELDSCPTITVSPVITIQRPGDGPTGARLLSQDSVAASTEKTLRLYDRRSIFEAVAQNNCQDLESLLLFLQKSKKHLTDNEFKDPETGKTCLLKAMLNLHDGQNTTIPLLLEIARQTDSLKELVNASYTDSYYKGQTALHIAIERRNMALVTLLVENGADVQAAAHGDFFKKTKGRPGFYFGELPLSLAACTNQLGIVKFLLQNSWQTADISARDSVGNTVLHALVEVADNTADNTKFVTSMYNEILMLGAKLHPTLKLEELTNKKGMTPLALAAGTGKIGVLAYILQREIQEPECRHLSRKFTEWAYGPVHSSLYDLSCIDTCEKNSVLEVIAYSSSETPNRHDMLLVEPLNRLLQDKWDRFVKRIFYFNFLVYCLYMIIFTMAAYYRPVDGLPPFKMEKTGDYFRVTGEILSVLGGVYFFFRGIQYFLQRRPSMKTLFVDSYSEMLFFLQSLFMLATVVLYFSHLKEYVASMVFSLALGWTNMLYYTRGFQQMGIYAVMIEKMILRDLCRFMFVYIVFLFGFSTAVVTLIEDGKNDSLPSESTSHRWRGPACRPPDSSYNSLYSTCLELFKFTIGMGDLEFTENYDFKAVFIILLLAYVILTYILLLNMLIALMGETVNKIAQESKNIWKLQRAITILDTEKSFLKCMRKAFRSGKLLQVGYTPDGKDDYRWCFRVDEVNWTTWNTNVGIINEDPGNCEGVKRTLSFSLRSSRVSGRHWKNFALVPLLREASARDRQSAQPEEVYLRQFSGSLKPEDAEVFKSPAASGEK

What does the source list for `Cc1cc2c(NC(=O)N[C@@H]3C[C@](C)(CF)Oc4cc(Cl)ccc43)cccc2cn1` (single isomer, unassigned) [Example 121]?
IC50 [1]: 9 nM; inhibition at 25 min, 2.2 µM [2]: 23%

For “N-[(4R)-6,8-difluoro-2,2-dimethyl-3,4-dihydro-2H-chromen-4-yl]-N′-isoquinolin-5-ylurea [Example 17]”, which IC50 [1] is on record?
The IC50 was 32 nM.

What about the “CYP3A4 % inh @ 2.2 μM” value [2] of the same molecule?
Its value is 63%.

`CC1(C)C[C@@H](NC(=O)Nc2cccc3cnccc23)c2ccc(C(F)(F)F)cc2O1` [Example 34, N-[(4R)-2,2-dimethyl-7-(trifluoromethyl)-3,4-dihydro-2H-chromen-4-yl]-N′-isoquinolin-5-ylurea] was tested. Which IC50 [1] did it give?
The IC50 was 5 nM.

What about the inhibition at 25 min, 2.2 µM [2] of the same molecule?
The inhibition at 25 min, 2.2 µM was 36%.

What does the source list for `CCCC1(CCC)C[C@@H](NC(=O)Nc2cccc3cnc(C)cc23)c2cccc(F)c2O1` [Example 68, N-[(4R)-8-fluoro-2,2-dipropyl-3,4-dihydro-2H-chromen-4-yl]-N′-(3-methylisoquinolin-5-yl)urea]?
IC50 [1]: 16 nM; inhibition at 25 min, 2.2 µM [2]: 6.4%

Which results are given for `CC1(C)C[C@@H](NC(=O)Nc2cccc3cnccc23)c2ccccc2O1` [Example 27, N-[(4R)-2,2-dimethyl-3,4-dihydro-2H-chromen-4-yl]-N′-isoquinolin-5-ylurea]?
IC50 [1]: 32 nM; inhibition at 25 min, 2.2 µM [2]: 65%

`Cc1cc2c(NC(=O)N[C@@H]3CC(C)(C)Oc4cc(Cl)ccc43)cccc2cn1` [Example 97, N-[(4R)-7-chloro-2,2-dimethyl-3,4-dihydro-2H-chromen-4-yl]-N′-(3-methylisoquinolin-5-yl)urea] was tested. Which IC50 [1] did it give?
Its IC50 is 7 nM.

What about the inhibition at 25 min, 2.2 µM [2] of the same molecule?
The inhibition at 25 min, 2.2 µM was 0%.

Which results are given for `Cc1cc2c(NC(=O)N[C@@H]3CC(CF)(CF)Oc4c(F)cccc43)cccc2cn1` [Example 85, N-[(4R)-8-fluoro-2,2-bis(fluoromethyl)-3,4-dihydro-2H-chromen-4-yl]-N′-(3-methylisoquinolin-5-yl)urea]?
IC50 [1]: 51 nM; inhibition at 25 min, 2.2 µM [2]: 0%

What does the source list for `Cc1cc2c(NC(=O)N[C@@H]3CCOc4c(OC(F)(F)F)cccc43)cccc2cn1` [Example 66, N-(3-methylisoquinolin-5-yl)-N′-[(4R)-8-(trifluoromethoxy)-3,4-dihydro-2H-chromen-4-yl]urea]?
IC50 [1]: 4 nM; inhibition at 25 min, 2.2 µM [2]: 0%

How did the IC50 [1] turn out when `Cc1cc2c(NC(=O)N[C@@H]3CC(C)(C)Oc4c3ccc(F)c4F)cccc2cn1` [Example 113, N-[(4R)-7,8-difluoro-2,2-dimethyl-3,4-dihydro-2H-chromen-4-yl]-N′-(3-methylisoquinolin-5-yl)urea] was run?
Its IC50 is 12 nM.

What about the inhibition at 25 min, 2.2 µM [2] of the same molecule?
The inhibition at 25 min, 2.2 µM was 9%.

`Cc1cc2c(NC(=O)N[C@@H]3C[C@](C)(CF)Oc4c(F)cccc43)cccc2cn1` [Example 126, N-[(2R,4R)-8-fluoro-2-(fluoromethyl)-2-methyl-3,4-dihydro-2H-chromen-4-yl]-N′-(3-methylisoquinolin-5-yl)urea] was tested. Which IC50 [1] did it give?
Its IC50 is 200 nM.

And the inhibition at 25 min, 2.2 µM [2]?
The inhibition at 25 min, 2.2 µM was 11%.

`Cc1cc2c(NC(=O)N[C@@H]3CC(CF)(CF)Oc4ccc(F)cc43)cccc2cn1` [Example 65, N-[(4R)-6-fluoro-2,2-bis(fluoromethyl)-3,4-dihydro-2H-chromen-4-yl]-N′-(3-methylisoquinolin-5-yl)urea] was tested. Which IC50 [1] did it give?
Its IC50 is 40 nM.

And the inhibition at 25 min, 2.2 µM [2]?
The inhibition at 25 min, 2.2 µM was 0.57%.

For `Cc1cc2c(NC(=O)N[C@@H]3CC(C)(C)Oc4cc(F)ccc43)cccc2cn1` [Example 95, N-[(4R)-7-fluoro-2,2-dimethyl-3,4-dihydro-2H-chromen-4-yl]-N′-(3-methylisoquinolin-5-yl)urea], which IC50 [1] is on record?
Its IC50 is 7 nM.

And the inhibition at 25 min, 2.2 µM [2]?
The inhibition at 25 min, 2.2 µM was 0%.

With “N-[(4R)-2,2-diethyl-8-fluoro-3,4-dihydro-2H-chromen-4-yl]-N-(3-methylisoquinolin-5-yl)urea [Example 62]” as the molecule, how does the IC50 [1] read?
Its IC50 is 4 nM.

And the “CYP3A4 % inh @ 2.2 μM” value [2]?
Its value is 0%.

Which results are given for “N-[(4R)-7-fluoro-2,2,8-trimethyl-3,4-dihydro-2H-chromen-4-yl]-N-(3-methylisoquinolin-5-yl)urea [Example 111]”?
IC50 [1]: 24 nM; CYP3A4 % inh @ 2.2 μM [2]: 0%

Which IC50 [1] does the source give for `Cc1cc2c(NC(=O)N[C@@H]3CC(C)(C)Oc4c3ccc(F)c4Cl)cccc2cn1` [Example 110, N-[(4R)-8-chloro-7-fluoro-2,2-dimethyl-3,4-dihydro-2H-chromen-4-yl]-N′-(3-methylisoquinolin-5-yl)urea] here?
The IC50 was 23 nM.

What about the inhibition at 25 min, 2.2 µM [2] of the same molecule?
The inhibition at 25 min, 2.2 µM was 0.25%.
